Experimental data from patent publication US6054455A, “Method for treating or preventing chronic nonbacterial prostatitis and prostatodynia” (Merck & Co., Inc., priority 1999, dated 2000).

Tested on: patients suffering from chronic nonbacterial prostatitis
Test: Double-blind, placebo-controlled study of a substance P antagonist in patients suffering from chronic nonbacterial prostatitis
Assay type: in vivo, human
Settings: 30 mg/day; assessed by immunological profile, rating scales, checklists and diminishment of the attendant disease state
Method: Double-Blind, Placebo-Controlled Study to Determine the Effect of a Substance P Antagonist on Patients Suffering from Chronic Nonbacterial Prostatitis Approximately twenty patients diagnosed as suffering from chronic nonbacterial prostatitis receive either the substance P receptor antagonist 2-(R)-(1-(R)-(3,5-bis(trifluoromethyl)-phenyl)-ethoxy)-3-(S)-(4-fluoro-phenyl)-4-(3-(5-oxo-1H,4H-1,2,4-triazolo)methyl-morpholine (30 mg/day) or a placebo. Each subject participates in 6 randomized test periods; in 3 of the test periods, each is given the substance P antagonist and in the other 3 test periods, is given a placebo. Efficacy of the test compound is assessed by reference to immunological profile, rating scales, checklists and diminishment of the attendant disease state.

C[C@@H](O[C@H]1OCCN(Cc2n[nH]c(=O)[nH]2)[C@H]1c1ccc(F)cc1)c1cc(C(F)(F)F)cc(C(F)(F)F)c1 [2-(R)-(1-(R)-(3,5-bis(trifluoromethyl)-phenyl)-ethoxy)-3-(S)-(4-fluoro-phenyl)-4-(3-(5-oxo-1H,4H-1,2,4-triazolo)methyl-morpholine]
effect with respect to placebo in the treatment or prevention of chronic nonbacterial prostatitis: positive effect with respect to placebo
